The values below are quoted from earlier work in patent publication US12727761B2, “Dosimetry system for photodynamic anitmicrobial therapy device of infectious keratitis” (UNIVERSITY OF MIAMI, priority 2020, dated 2026).

Data set [1] relates to fungal and bacterial isolates derived from patients with infectious keratitis. The settings on record: Rose Bengal photodynamic antimicrobial therapy (RB-PDAT).
Another data set has as its system corneal infection. The settings on record: RB-PDAT as experimental therapy for corneal infection.
In another data set the test system is Candida albicans. Conditions: erythrosine-mediated PDT.
Data set [2] has as its system keratitis derived Acanthamoeba castellanii.

Structures are written as SMILES.

As for `O=C([O-])c1c(Cl)c(Cl)c(Cl)c(Cl)c1-c1c2cc(I)c(=O)c(I)c-2oc2c(I)c([O-])c(I)cc12.[Na+].[Na+]` [Rose Bengal], the “inhibition of fungal and bacterial isolates” value in data set [1] is “fully inhibit”. Also, the “patients who avoided undergoing emergency corneal transplantation” value in the data set on corneal infection is “approximately 72%”.

With `O=C1OC2(c3ccccc31)c1cc(I)c(O)c(I)c1Oc1c2cc(I)c(O)c1I` [erythrosine], in the data set with Candida albicans, the reduction in concentration is 1.97 log10. In the case of `CN(C)c1ccc2nc3ccc(=[N+](C)C)cc-3sc2c1` [methylene blue], the respiratory activity entry in data set [2] (methylene blue-mediated PDT) was “significantly reduce”. The “effects with traditional Acanthamoeba treatment regimens” value in data set [2] (methylene blue-mediated PDT combined with traditional treatment regimens) is “synergistic effects”.
